Measurements: patent US20250296959A1, “B7-H3 TARGETING PEPTIDES AND CONSTRUCTS THEREOF” (Mariana Oncology Inc., priority 2024, published 2025)
Where two headings read alike, the source gives them in different places. Starred links: 1 amine or outer side, 2 acyl side, 3 side chain; linkers in the order of their positions; H or OH if unused. Positions of bridges follow the written chain, without caps; N, C: chain ends. Non-standard residues stand in square brackets, D forms with d. Residues, ends and D or L forms follow the SMILES beside them. *: point of attachment. X2 = O=C(O)CN1CCN(CC(=O)O)CCN(CC(=O)NCCOCCOCCOCCOCC(=O)*)CCN(CC(=O)O)CC1; Ala(1-CH2CO2H-4-piperidyl) = N[C@@H](CC1CCN(CC(=O)O)CC1)C(=O)O; Ala(piperidin-4-yl) = O=C([C@H](CC1CCN([*:3])CC1)N[*:1])[*:2]; DOTA = O=C(O)CN1CCN(CC(=O)O)CCN(CC(=O)*)CCN(CC(=O)O)CC1; Trp(5-F) = N[C@@H](Cc1c[nH]c2ccc(F)cc12)C(=O)O; Ala(4-THP) = N[C@@H](CC1CCOCC1)C(=O)O; Val(3-OH) = CC(C)(O)[C@H](N)C(=O)O; hCha = N[C@@H](CCC1CCCCC1)C(=O)O; Tle = CC(C)(C)[C@H](N)C(=O)O; hLeu = CC(C)CC[C@H](N)C(=O)O; Dab = NCC[C@H](N)C(=O)O; Sar = CNCC(=O)O

Assays:
Calu-6 cell line [1] = assay: Cell associated (bound) fraction of [177Lu]Lu-labeled peptide in Calu-6 cells; type: cell-based, Human; settings: 1 hour, 37° C.
In short: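 Detached B7-H3-expressing human lung cancer cells at 5 million/mL were exposed for 1 hour at 37 °C to 0.8 μCi of the 177Lu-labelled peptide, which was formulated in 1% PBSA after labelling at 80 °C, pH ~5. Supernatant and two cold washes counted as unbound, and resuspended cells gamma-counted as the cell-associated fraction.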

human 4lg B7-H3 = molecular target: T1, human 4lg B7-H3 (Homo sapiens, UniProt Q5ZPR3); assay: Affinity determination by surface plasmon resonance (SPR) to 4Ig B7-H3; settings: 4Ig B7-H3
T1 sequence (Q5ZPR3 29-534): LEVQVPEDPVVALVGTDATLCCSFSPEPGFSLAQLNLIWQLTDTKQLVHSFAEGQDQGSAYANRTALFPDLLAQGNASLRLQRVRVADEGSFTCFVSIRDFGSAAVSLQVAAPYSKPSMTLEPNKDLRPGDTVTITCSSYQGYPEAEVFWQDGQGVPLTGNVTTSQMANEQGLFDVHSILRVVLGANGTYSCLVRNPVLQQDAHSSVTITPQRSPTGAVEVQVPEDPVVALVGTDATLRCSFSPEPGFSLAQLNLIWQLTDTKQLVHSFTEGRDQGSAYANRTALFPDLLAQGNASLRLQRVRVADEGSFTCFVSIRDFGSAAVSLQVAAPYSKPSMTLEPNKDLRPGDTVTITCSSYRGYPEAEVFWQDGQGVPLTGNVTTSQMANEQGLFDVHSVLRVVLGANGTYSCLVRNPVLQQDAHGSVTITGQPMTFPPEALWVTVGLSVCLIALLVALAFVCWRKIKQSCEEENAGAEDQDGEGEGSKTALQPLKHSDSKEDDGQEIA

Calu-6 cell line [2] = assay: Net internalization of [177Lu]Lu-labeled peptide in Calu-6 cells; type: cell-based, Human; settings: 1 hour, 37° C., glycine pH 2.5 acid wash
In short: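 Calu-6 cells, human non-engineered lung cancer expressing B7-H3, resuspended in 1% PBSA at 5 million cells/mL and incubated with the 177Lu-labeled conjugate (labeled at 80 °C, pH ~5, RP-HPLC checked). Gamma counting of the bound fraction, then of the pellet after two glycine pH 2.5 acid strips and NaOH lysis, gives internalized activity.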

[3] = SPR KD—37° C., 37° C. flow cell temperature
[4] = read-out: SPR KD—37° C., 37° C. flow cell temperature

Structure (SMILES) | % cell associated fraction (Calu-6 cell line [1]) | Kd (human 4lg B7-H3; SPR KD—25° C., 25° C. flow cell temperature) [nM] | Kd (human 4lg B7-H3; [3]) [nM] | % net internalization (Calu-6 cell line [2]) | Kd (human 4lg B7-H3; [4]) [nM]
CC(=O)N[C@@H](CCC(C)C)C(=O)N[C@@H](Cc1ccc(O)cc1)C(=O)N[C@H]1CSSC[C@@H](C(=O)N[C@@H](Cc2c[nH]c3ccc(F)cc23)C(=O)N[C@@H](Cc2ccccc2)C(=O)N[C@H](C(=O)N[C@H](CCCCNC(=O)COCCOCCOCCOCCNC(=O)CN2CCN(CC(=O)O)CCN(CC(=O)O)CCN(CC(=O)O)CC2)C(=O)O)C(C)(C)O)NC(=O)[C@H](Cc2ccc(O)cc2)NC(=O)[C@H](C(C)C)NC(=O)[C@H](CC(=O)O)NC(=O)[C@H](CC2CCOCC2)NC(=O)[C@H](CCCCN)NC(=O)CNC(=O)[C@H](C(C)(C)C)NC1=O [compound 310, Ac-hLeu-Y-C-Tbg-G-K-ThpA-D-V-Y-C-5FW-F-hydroxyVal-dLys(PEG4-DOTA)-COOH] (Ac-[hLeu]YC[Tle]GK[Ala(4-THP)]DVYC[Trp(5-F)]F[Val(3-OH)][dK](X2)-OH; disulfide 3-11) | C (%>50) | < 1 | < 1 | B (25<%≤50) | –
CC[C@H](C)[C@@H]1NC(=O)[C@@H](NC(=O)[C@H](Cc2ccc(O)cc2)NC(=O)[C@H](CCC(C)C)NC(C)=O)CSSC[C@@H](C(=O)N[C@@H](Cc2c[nH]c3ccc(F)cc23)C(=O)N[C@@H](Cc2ccccc2)C(=O)N[C@H](C(=O)N[C@H](CCCCNC(=O)CN2CCN(CC(=O)O)CCN(CC(=O)O)CCN(CC(=O)O)CC2)C(=O)O)C(C)(C)O)NC(=O)[C@H](Cc2ccc(O)cc2)NC(=O)[C@H](C(C)C)NC(=O)[C@H](CC(=O)O)NC(=O)[C@H](CC2CCOCC2)NC(=O)[C@H](CC2CCN(CC(=O)O)CC2)NC(=O)CNC1=O [compound 318, Ac-hLeu-Y-C-Ile-G-[Pip(CH2CO2H)Ala]-ThpA-D-V-Y-C-5FW-F-hydroxyVal-dLys(DOTA)-COOH] (Ac-[hLeu]YCIG[Ala(1-CH2CO2H-4-piperidyl)][Ala(4-THP)]DVYC[Trp(5-F)]F[Val(3-OH)][dK](DOTA)-OH; disulfide 3-11) | B (25<%≤50) | – | – | A (%≤25) | 1 to 10
CC(=O)N[C@@H](CCC(C)C)C(=O)N[C@@H](Cc1ccc(O)cc1)C(=O)N[C@H]1CSSC[C@@H](C(=O)N[C@@H](Cc2c[nH]c3ccc(F)cc23)C(=O)N[C@@H](Cc2ccccc2)C(=O)N[C@H](C(N)=O)C(C)(C)O)NC(=O)[C@H](Cc2ccc(O)cc2)NC(=O)[C@H](C(C)C)NC(=O)[C@H](CC(=O)O)NC(=O)[C@H](CC2CCOCC2)NC(=O)[C@H](CCCCNC(=O)CN2CCN(CC(=O)O)CCN(CC(=O)O)CCN(CC(=O)O)CC2)NC(=O)CNC(=O)[C@H](C(C)(C)C)NC1=O [compound 338, Ac-hLeu-Y-C-Tbg-G-Lys(DOTA)-ThpA-D-V-Y-C-5FW-F-hydroxyVal-CONH2] (Ac-[hLeu]YC[Tle]GK(DOTA)[Ala(4-THP)]DVYC[Trp(5-F)]F[Val(3-OH)]-NH2; disulfide 3-11) | B (25<%≤50) | – | – | A (%≤25) | 1 to 10
CC(=O)N[C@@H](CCC(C)C)C(=O)N[C@@H](Cc1ccc(O)cc1)C(=O)N[C@H]1CSSC[C@@H](C(=O)N[C@@H](Cc2c[nH]c3ccc(F)cc23)C(=O)N[C@@H](Cc2ccccc2)C(=O)N[C@H](C(=O)N[C@H](CCCCNC(=O)CN2CCN(CC(=O)O)CCN(CC(=O)O)CCN(CC(=O)O)CC2)C(=O)O)C(C)(C)O)NC(=O)[C@H](Cc2ccc(O)cc2)NC(=O)[C@H](C(C)C)NC(=O)[C@H](CC(=O)O)NC(=O)[C@H](CC2CCOCC2)NC(=O)[C@H](CC2CCN(CC(=O)O)CC2)NC(=O)CNC(=O)[C@H](C(C)(C)C)NC1=O [compound 339, Ac-hLeu-Y-C-Tbg-G-[Pip(CH2CO2H)Ala]-ThpA-D-V-Y-C-5FW-F-hydroxyVal-dLys(DOTA)-COOH] (Ac-[hLeu]YC[Tle]G[Ala(1-CH2CO2H-4-piperidyl)][Ala(4-THP)]DVYC[Trp(5-F)]F[Val(3-OH)][dK](DOTA)-OH; disulfide 3-11) | C (%>50) | – | – | B (25<%≤50) | < 1
CC(=O)N[C@@H](CCC(C)C)C(=O)N[C@@H](Cc1ccc(O)cc1)C(=O)N[C@H]1CSSC[C@@H](C(=O)N[C@@H](Cc2c[nH]c3ccc(F)cc23)C(=O)N[C@@H](Cc2ccccc2)C(=O)N[C@H](C(=O)N[C@H](CCCCNC(=O)CN2CCN(CC(=O)O)CCN(CC(=O)O)CCN(CC(=O)O)CC2)C(=O)O)C(C)(C)O)NC(=O)[C@H](Cc2ccc(O)cc2)NC(=O)[C@H](C(C)C)NC(=O)[C@H](CC(=O)O)NC(=O)[C@H](CC2CCOCC2)NC(=O)[C@H](CC2CCNCC2)NC(=O)CNC(=O)[C@H](C(C)(C)C)NC1=O [compound 340, Ac-hLeu-Y-C-Tbg-G-PipAla-ThpA-D-V-Y-C-5FW-F-hydroxyVal-dLys(DOTA)-COOH] (Ac-[hLeu]YC[Tle]G[Ala(piperidin-4-yl)][Ala(4-THP)]DVYC[Trp(5-F)]F[Val(3-OH)][dK](DOTA)-OH; disulfide 3-11) | C (%>50) | – | – | A (%≤25) | < 1
CC(=O)N[C@@H](CCC(C)C)C(=O)N[C@@H](Cc1ccc(O)cc1)C(=O)N[C@H]1CSSC[C@@H](C(=O)N[C@@H](Cc2c[nH]c3ccc(F)cc23)C(=O)N[C@@H](Cc2ccccc2)C(=O)N[C@H](C(=O)N[C@H](CCCCNC(=O)CN2CCN(CC(=O)O)CCN(CC(=O)O)CCN(CC(=O)O)CC2)C(=O)O)C(C)(C)O)NC(=O)[C@H](Cc2ccc(O)cc2)NC(=O)[C@H](C(C)C)NC(=O)[C@H](CC(=O)O)NC(=O)[C@H](CC2CCOCC2)NC(=O)[C@H](CCCCN)NC(=O)CN(C)C(=O)[C@H](C(C)(C)C)NC1=O [compound 348, Ac-hLeu-Y-C-Tbg-Sar-K-ThpA-D-V-Y-C-5FW-F-hydroxyVal-dLys(DOTA)-COOH] (Ac-[hLeu]YC[Tle][Sar]K[Ala(4-THP)]DVYC[Trp(5-F)]F[Val(3-OH)][dK](DOTA)-OH; disulfide 3-11) | B (25<%≤50) | – | – | A (%≤25) | < 1
CC(=O)N[C@@H](CCC(C)C)C(=O)N[C@@H](Cc1ccc(O)cc1)C(=O)N[C@H]1CSSC[C@@H](C(=O)N[C@@H](Cc2c[nH]c3ccc(F)cc23)C(=O)N[C@@H](Cc2ccccc2)C(=O)N[C@H](C(=O)N[C@H](CCCCNC(=O)CN2CCN(CC(=O)O)CCN(CC(=O)O)CCN(CC(=O)O)CC2)C(N)=O)C(C)(C)O)NC(=O)[C@H](Cc2ccc(O)cc2)NC(=O)[C@H](C(C)C)NC(=O)[C@H](CC(=O)O)NC(=O)[C@H](CC2CCOCC2)NC(=O)[C@H](CCCCN)NC(=O)CNC(=O)[C@H](C(C)(C)C)NC1=O [compound 366, Ac-hLeu-Y-C-Tbg-G-K-ThpA-D-V-Y-C-5FW-F-hydroxyVal-dLys(DOTA)-CONH2] (Ac-[hLeu]YC[Tle]GK[Ala(4-THP)]DVYC[Trp(5-F)]F[Val(3-OH)][dK](DOTA)-NH2; disulfide 3-11) | B (25<%≤50) | – | < 1 | A (%≤25) | –
CC(=O)N[C@@H](CCC1CCCCC1)C(=O)N[C@@H](Cc1ccc(O)cc1)C(=O)N[C@H]1CSSC[C@@H](C(=O)N[C@@H](Cc2c[nH]c3ccc(F)cc23)C(=O)N[C@@H](Cc2ccccc2)C(=O)N[C@H](C(=O)N[C@H](CCCCNC(=O)CN2CCN(CC(=O)O)CCN(CC(=O)O)CCN(CC(=O)O)CC2)C(=O)O)C(C)(C)O)NC(=O)[C@H](Cc2ccc(O)cc2)NC(=O)[C@H](C(C)C)NC(=O)[C@H](CC(=O)O)NC(=O)[C@H](CC2CCOCC2)NC(=O)[C@H](CCCCN)NC(=O)CNC(=O)[C@H](C(C)(C)C)NC1=O [compound 368, Ac-hCha-Y-C-Tbg-G-K-ThpA-D-V-Y-C-5FW-F-hydroxyVal-dLys(DOTA)-COOH] (Ac-[hCha]YC[Tle]GK[Ala(4-THP)]DVYC[Trp(5-F)]F[Val(3-OH)][dK](DOTA)-OH; disulfide 3-11) | B (25<%≤50) | – | < 1 | A (%≤25) | –
CC(=O)N[C@@H](CCC(C)C)C(=O)N[C@@H](Cc1ccc(O)cc1)C(=O)N[C@H]1CSSC[C@@H](C(=O)N[C@@H](Cc2c[nH]c3ccc(F)cc23)C(=O)N[C@@H](Cc2ccccc2)C(=O)N[C@H](C(=O)N[C@H](CCCCNC(=O)CN2CCN(CC(=O)O)CCN(CC(=O)O)CCN(CC(=O)O)CC2)C(=O)O)C(C)(C)O)NC(=O)[C@H](Cc2ccc(O)cc2)NC(=O)[C@H](C(C)C)NC(=O)[C@H](CC(=O)O)NC(=O)[C@H](CC2CCOCC2)NC(=O)[C@H](CCN)NC(=O)CNC(=O)[C@H](C(C)(C)C)NC1=O [compound 371, Ac-hLeu-Y-C-Tbg-G-Dab-ThpA-D-V-Y-C-5FW-F-hydroxyVal-dLys(DOTA)-COOH] (Ac-[hLeu]YC[Tle]G[Dab][Ala(4-THP)]DVYC[Trp(5-F)]F[Val(3-OH)][dK](DOTA)-OH; disulfide 3-11) | B (25<%≤50) | – | < 1 | A (%≤25) | –
